Values belong to the molecule of their own block, whether it stands above or below them. Peptide text beside a SMILES is read from it.
What was measured:
α-synuclein [1] = molecular target: T1, α-synuclein (Homo sapiens, UniProt P37840); assay: surface plasmon resonance binding (CM5 sensor chip); conditions: Scatchard plot; for affinity to α-synuclein (in words): peptide immobilized on CM5 chip by amine coupling, α-synuclein injected
T1 construct: made in house; host or cells: Escherichia coli BL21(DE3)
Procedure: The affinities of the screened peptides were determined by surface plasmon resonance measurement. The screened peptides were immobilized on a CM5 sensor chip by amine coupling. […] Thus, we added an alanine residue to the N-terminals of these peptides to immobilize them on the CM5 sensor chip and evaluated them. The dissociation constants were determined using a Scatchard plot. […] In the case of PTYF, its KD was more than 10 times that of QSTQ. Since docking simulation still has problems inaccuracy, we have to evaluate several peptides to find good ligands. In this study, we can obtain the high affinity peptide by assaying the top 4 peptides.
Human wild-type α-synuclein expressed in Escherichia coli BL21(DE3) cells transformed the pET28a/human α-synuclein WT plasmid. Following induction with 1 mM isopropyl-1-thio-β-D-galactopyranoside, the α-synuclein was purified by anion exchange chromatography. The bacterial cells were harvested by centrifugation at 5,000 g for 10 min and lysed in 500 mM NaCl, 20 mM Tris-HCl, pH 8.0, and 1 mM EDTA. The lysate was then boiled for 20 min, and centrifuged for 10 min at 20,000 g. The supernatant was dialyzed against 20 mM Tris-HCl, pH 8.0, loaded onto a ResourseQ 6-ml column (Amersham Biosciences) equilibrated in the same buffer, and eluted with a 0 ~1 M NaCl gradient. The α-synuclein-containing fraction was dialyzed against 10 mM Tris-HCl, pH 7.4.
All peptides were immobilized onto the CM5 sensor chip by amine coupling. The CM5 sensor chip (Biacore) was activated by an equimolar mix of NHS (N-hydroxysuccinimide) and EDC (N-ethyl-N'-(dimethylaminopropyl) carbodiimide), coupled with 100 μg/mL of the synthesized peptide in pH-6.0 sodium acetate buffer, and then blocked with ethanolamine. For reference, only activation and protection was carried out, in the same way as mentioned above. The final coupling level of each peptide was approximately 100 RU. Each of the α-synuclein solutions was injected, and at different concentrations a signal increase was observed. The sensor surface was regenerated using 0.5% SDS. The dissociation constants were determined using a Scatchard plot and an equilibrium point.

α-synuclein [2] = conditions: cited from earlier work
α-synuclein [3] = molecular target: T1, α-synuclein; assay: Thioflavin T (TfT) binding assay of α-synuclein fibril formation; assay type: biochemical; conditions: α-synuclein 140 μM, peptide 700 μM (5-fold molar excess), 10 mM Tris-HCl pH 7.4, 0.02% NaN3, 37°C, shaking; 25 μM TfT
Procedure: (§1) To determine the effect of peptides on α-synuclein aggregation, we co-incubated α-synuclein with 5-fold molar excess of the screened peptides. The α-synuclein fibril amounts were evaluated by Thioflavin T (TfT) binding assay. It is known that when TfT binds to amyloid fibrils, the fluorescence intensity around 480 nm increases. […] Next, to determine whether or not these increases in fluorescence intensity depend on the fibril amount, we examined the aggregation amount by a light scattering assay at 330 nm. The value of optical density at 330 nm of the α-synuclein solution with the top peptides was also higher compared with that of the α-synuclein solution without peptide, as shown in Figure 4.
Figure 3 Time course of α-synuclein fibril formation. […] 100% is the final fluorescence intensity of α-synuclein without peptide. […]
(§2) All the protein samples were concentrated to approximately 4.0 mg/ml by means of Amicon Ultra-15 filters (Millipore) in 10 mM Tris-HCl, pH 7.4, and centrifuged at 150,000 g for 60 min to remove the insoluble aggregates. […] Fibril formation was monitored by thioflavin T (TfT) fluorescence: 10 μl aliquots were sampled from the incubated samples and added to 1.0 ml of 25 μM TfT in 10 mM Tris buffer, pH 7.4. Fluorescence emission was measured at 485 nm at an excitation wavelength of 450 nm on a FP6500 spectrofluorometer (JASCO). […]

α-synuclein [4] = molecular target: T1, α-synuclein; assay: light scattering assay at 330 nm (total aggregation); assay type: biochemical; conditions: 5-fold molar excess of peptide, 10 mM Tris-HCl pH 7.4, 0.02% NaN3, 37°C, shaking
Procedure: as §1
Figure 4 Light scattering assay. […] 100% is the optical density at 330 nm of α-synuclein without peptide. […]
as §2

[5] = tested on: α-synuclein 68–78 (GAVVTGVTAVA); conditions: ref [14]; cited from earlier work
From the text: To obtain an effective peptidic aggregation inhibitor, the peptide should bind to the region that plays an important role in amyloid fibril formation. The hydrophobic central region of α-synuclein called the "non-amyloid-β component of the amyloid plaque" (NAC) (residues 61–95) is the most important region in the formation of amyloid-like fibrils.

affinity to α-synuclein (in words) (α-synuclein [1]): lower affinity than QSTQ and AQTQ
Molecule: GSQQ [tetramer peptide from in silico panning, rank 2]

optical density at 330 nm relative to solution without peptide (α-synuclein [4]): more than 1.5 times
Molecule: AQTQ [tetramer peptide from in silico panning, rank 4]
affinity to α-synuclein (in words) (α-synuclein [1]): bound to α-synuclein with similar affinity of QSTQ

affinity to α-synuclein (in words) (α-synuclein [1]): lower affinity than QSTQ and AQTQ
Molecule: SQTQ [tetramer peptide from in silico panning, rank 3]

More lines, now with the values behind:

Molecule: N[C@@H](Cc1ccc(O)c(O)c1)C(=O)O [L-DOPA]
cytotoxicity (in words) (α-synuclein [2]): enhance cytotoxicity

Molecule: C[C@@H](O)[C@H](NC(=O)[C@H](CO)NC(=O)[C@@H](N)CCC(N)=O)C(=O)N[C@@H](CCC(N)=O)C(=O)O [QSTQ] (H-QSTQ-OH; N-terminus and C-terminus assumed)
fluorescence intensity of TfT relative to solution without peptide (α-synuclein [3]): more than 1.5 times
optical density at 330 nm relative to solution without peptide (α-synuclein [4]): more than 1.5 times

Molecule: PTYF
KD relative to KD of QSTQ (α-synuclein [1]; peptide immobilized on CM5 chip, alanine residue added to N-terminal): more than 10 times

Molecule: GAVVTGVTAVA [α-synuclein 68–78, partial peptide in NAC, the target 11-mer peptide]
amyloid-like fibril formation by itself (in words) [5]: form amyloid-like fibrils by themselves
